# Reference: patent US20240082296A1, “TREATMENT OF MUSCLE ATROPHY USING DEXTRAN SULFATE” (TX MEDIC AB, priority 2020, published 2024)
# Marks after values point to notes of the source that are not given here.
# System: severe traumatic brain injury (sTBI) in rats
# Experiment: HPLC of purine-pyrimidine / energy metabolites in rat brain after sTBI (Example 4)
# Type: in vivo
# Procedure: The effects of daily sub-cutaneous injections of dextran sulfate on glutamate excitotoxicity and mitochondrial function after severe traumatic brain injury (sTBI) in rats were evaluated by high-performance liquid chromatography (HPLC) analysis of frozen brain samples.
# The experimental protocol used in this study was approved by the Ethical Committee of the Catholic University of Rome, according to international standards and guidelines for animal care. Male Wistar rats of 300-350 g body weight (b.w.) were fed with standard laboratory diet and water ad libitum in a controlled environment.
# They were divided into three groups: • 1) n=6 animals subjected to sTBI, with drug administration after 30 minutes and sacrifice at 2 days post-TBI (Acute phase 1) • 2) n=6 animals subjected to severe-TBI, with drug administration after 30 minutes and sacrifice at 7 days post-TBI (Acute phase 2). • 3) n=6 animals subjected to severe-TBI, with drug administration after 3 days and sacrifice at 7 days post-TBI (Chronic phase).
# As the anesthetic mixture, animals received 35 mg/kg b.w. ketamine and 0.25 mg/kg b.w. midazolam by i.p. injection. sTBI was induced by dropping a 450 g weight from 2 m height on to the rat head that had been protected by a metal disk previously fixed on the skull, according to the “weight drop” impact acceleration model (Marmarou et al., A new model of diffuse brain injury in rats. Part I: Pathophysiology and biomechanics. J Neurosurg. 1994; 80: 291-300). […] At the end of each period of treatment, rats were anesthetized again and then immediately sacrificed.
# The drug treatment was a subcutaneous injection of 0.5 ml of dextran sulfate (Tikomed AB, Viken, Sweden, WO 2016/076780; 15 mg/kg) and administered according to the aforementioned schematic protocol.
# An in vivo craniectomy was performed in all animals during anesthesia, after carefully removing the rat's skull, the brain was exposed and removed with a surgical spatula and quickly dropped in liquid nitrogen. After the wet weight (w.w.) determination, tissue preparation was affected as previously disclosed (Tavazzi et al., Cerebral oxidative stress and depression of energy metabolism correlate with severity of diffuse brain injury in rats. Neurosurgery. 2005; 56: 582-589; Vagnozzi et al., Temporal window of metabolic brain vulnerability to concussions: mitochondrial-related impairment-part I. Neurosurgery. 2007; 61: 379-388; Tavazzi et al., Temporal window of metabolic brain vulnerability to concussions: oxidative and nitrosative stresses-part II. Neurosurgery. 2007; 61: 390-395; Amorini et al., Severity of experimental traumatic brain injury modulates changes in concentrations of cerebral free amino acids. J Cell Mol Med. 2017; 21: 530-542.). Briefly, whole brain homogenization was performed with 7 ml of ice-cold, nitrogen-saturated, precipitating solution composed by CH3CN+10 mM KH2PO4, pH 7.40, (3:1; v:v), and using an Ultra-Turrax set at 24,000 rpm/min (Janke & Kunkel, Staufen, Germany). After centrifugation at 20,690×g, for 10 min at 4° C., the clear supernatants were saved, pellets were supplemented with 3 ml of the precipitating solution and homogenized again as described above. A second centrifugation was performed (20,690×g, for 10 min at 4° C.), pellets were saved, supernatants combined with those previously obtained, extracted by vigorous agitation with a double volume of HPLC-grade CHCl3 and centrifuged as above. The upper aqueous phases containing water-soluble low-molecular weight compounds were collected, subjected to chloroform washings for two more times (this procedure allowed the removal of all the organic solvent and of any lipid soluble compound from the buffered tissue extracts), adjusted in volumes with 10 mM KH2PO4, pH 7.40, to have ultimately aqueous 10% tissue homogenates and saved at −80° C. until assayed. […]
# [1] = Acute phase 1 (15 mg/kg s.c. 30 min after sTBI, sacrifice 2 days post-TBI)
# [2] = Acute phase 2 (15 mg/kg s.c. 30 min after sTBI, sacrifice 7 days post-TBI)
substance,measurement,setting,value
dextran sulfate,ADO concentration,[1],71.67 ± 15.87 nmol/g (w.w.)
same,ADP concentration,[1],279.34 ± 29.59^b nmol/g (w.w.)
same,ADP-ribose concentration,[1],137.87 ± 43.18^a nmol/g (w.w.)
same,AMP concentration,[1],"53.61 ± 17.91^a,c,j nmol/g (w.w.)"
same,ATP concentration,[1],"1464.25 ± 99.09^a,h nmol/g (w.w.)"
same,CDP choline concentration,[1],"10.93 ± 3.22^b,h nmol/g (w.w.)"
same,CDP concentration,[1],"25.53 ± 6.83^a,c nmol/g (w.w.)"
same,CMP concentration,[1],"30.12 ± 9.97^a,h nmol/g (w.w.)"
same,CTP concentration,[1],"18.98 ± 6.58^a,g nmol/g (w.w.)"
same,CoA-SH concentration,[1],"21.61 ± 3.42^a,h nmol/g (w.w.)"
same,GDP concentration,[1],158.72 ± 24.57^a nmol/g (w.w.)
same,GDP glucose concentration,[1],38.71 ± 6.86 nmol/g (w.w.)
same,GMP concentration,[1],"177.00 ± 32.39^a,g nmol/g (w.w.)"
same,GSH concentration,[1],"2649.50 ± 397.31^a,d nmol/g (w.w.)"
same,GSSG concentration,[1],185.21 ± 48.10 nmol/g (w.w.)
same,GTP concentration,[1],"255.29 ± 45.21^a,g nmol/g (w.w.)"
same,IMP concentration,[1],"67.71 ± 10.63^g,i nmol/g (w.w.)"
same,MDA concentration,[1],"12.47 ± 2.09^a,c,g nmol/g (w.w.)"
same,NAA concentration,[1],6147.91 ± 989.12^a nmol/g (w.w.)
same,NADH concentration,[1],"15.49 ± 2.05^c,j nmol/g (w.w.)"
same,NADPH concentration,[1],6.22 ± 1.73 nmol/g (w.w.)
same,NADP^+ concentration,[1],17.95 ± 3.28^a nmol/g (w.w.)
same,NAD^+ concentration,[1],"404.63 ± 51.10^a,c,i nmol/g (w.w.)"
same,NO2 concentration,[1],216.03 ± 41.74^a nmol/g (w.w.)
same,NO3 concentration,[1],210.64 ± 91.95^d nmol/g (w.w.)
same,UDP concentration,[1],"61.83 ± 10.23^a,g nmol/g (w.w.)"
same,UDP-Gal concentration,[1],119.45 ± 12.50 nmol/g (w.w.)
same,UDP-GalNac concentration,[1],19.17 ± 4.01^a nmol/g (w.w.)
same,UDP-Glc concentration,[1],32.14 ± 4.59^g nmol/g (w.w.)
same,UDP-GlcNac concentration,[1],"95.85 ± 19.73^h,i nmol/g (w.w.)"
same,UMP concentration,[1],107.80 ± 21.62 nmol/g (w.w.)
same,UTP concentration,[1],123.46 ± 15.42^d nmol/g (w.w.)
same,acetyl-CoA concentration,[1],"21.56 ± 6.22^a,g,i nmol/g (w.w.)"
same,adenine concentration,[1],"44.82 ± 6.31^a,d,g nmol/g (w.w.)"
same,ascorbic acid concentration,[1],"3733.10 ± 277.88^a,d nmol/g (w.w.)"
same,creatinine concentration,[1],"24.55 ± 3.20^b,g,i nmol/g (w.w.)"
same,cytidine concentration,[1],15.40 ± 3.04 nmol/g (w.w.)
same,cytosine concentration,[1],"17.69 ± 2.50^b,d nmol/g (w.w.)"
same,guanine concentration,[1],4.80 ± 1.24^b nmol/g (w.w.)
same,guanosine concentration,[1],20.71 ± 5.66 nmol/g (w.w.)
same,hypoxanthine concentration,[1],14.47 ± 2.87^a nmol/g (w.w.)
same,inosine concentration,[1],92.55 ± 31.20^c nmol/g (w.w.)
same,malonyl-CoA concentration,[1],12.33 ± 1.82^b nmol/g (w.w.)
same,orotic acid concentration,[1],"8.80 ± 2.45^b,h,j nmol/g (w.w.)"
same,thymidine concentration,[1],0.69 ± 0.11 nmol/g (w.w.)
same,uracil concentration,[1],14.56 ± 5.44 nmol/g (w.w.)
same,uric acid concentration,[1],"23.62 ± 3.77^a,d,h nmol/g (w.w.)"
same,uridine concentration,[1],"76.35 ± 12.85^a,c nmol/g (w.w.)"
same,xanthine concentration,[1],9.46 ± 2.34^d nmol/g (w.w.)
same,β-pseudouridine concentration,[1],"6.65 ± 1.30^g,i nmol/g (w.w.)"
same,ADO concentration,[2],82.11 ± 16.51^a nmol/g (w.w.)
same,ADP concentration,[2],"264.07 ± 28.29^b,e,j nmol/g (w.w.)"
same,ADP-ribose concentration,[2],"141.96 ± 23.56^a,e,j nmol/g (w.w.)"
same,AMP concentration,[2],"57.70 ± 23.01^a,e,j nmol/g (w.w.)"
same,ATP concentration,[2],"1632.23 ± 90.07^a,e,j nmol/g (w.w.)"
same,CDP choline concentration,[2],6.91 ± 1.86 nmol/g (w.w.)
same,CDP concentration,[2],24.29 ± 6.76^a nmol/g (w.w.)
same,CMP concentration,[2],"15.68 ± 2.12^f,j nmol/g (w.w.)"
same,CTP concentration,[2],"32.63 ± 3.99^e,i nmol/g (w.w.)"
same,CoA-SH concentration,[2],30.57 ± 6.02^f nmol/g (w.w.)
same,GDP concentration,[2],"126.70 ± 31.35^a,j nmol/g (w.w.)"
same,GDP glucose concentration,[2],49.25 ± 10.33^a nmol/g (w.w.)
same,GMP concentration,[2],"91.47 ± 12.35^e,i nmol/g (w.w.)"
same,GSH concentration,[2],"2821.50 ± 242.82^a,e nmol/g (w.w.)"
same,GSSG concentration,[2],219.54 ± 53.36 nmol/g (w.w.)
same,GTP concentration,[2],"336.65 ± 35.18^a,e,j nmol/g (w.w.)"
same,IMP concentration,[2],102.63 ± 22.09^a nmol/g (w.w.)
same,MDA concentration,[2],"4.82 ± 1.73^a,e,i nmol/g (w.w.)"
same,NAA concentration,[2],"7262.84 ± 749.73^a,e nmol/g (w.w.)"
same,NADH concentration,[2],13.12 ± 4.19^e nmol/g (w.w.)
same,NADPH concentration,[2],7.05 ± 2.21 nmol/g (w.w.)
same,NADP^+ concentration,[2],"21.27 ± 4.19^b,e,j nmol/g (w.w.)"
same,NAD^+ concentration,[2],"401.18 ± 34.53^a,e,i nmol/g (w.w.)"
same,NO2 concentration,[2],226.40 ± 30.95^b nmol/g (w.w.)
same,NO3 concentration,[2],"198.56 ± 25.93^e,i nmol/g (w.w.)"
same,UDP concentration,[2],"40.38 ± 8.50^a,i nmol/g (w.w.)"
same,UDP-Gal concentration,[2],145.14 ± 27.76 nmol/g (w.w.)
